# From the SangsterLogP compilation
row,logP,Structure (SMILES)
1,4.42,O=C(O)c1ccccc1Nc1cccc([N+](=O)[O-])c1
2,2.44,O=C1CCC(=O)N1c1cc(Cl)cc(Cl)c1Cl
3,2.43,Cc1ccc(C(=O)O)cc1
4,2.91,O=C(c1ccccc1)c1ccc(O)cc1
5,2.92,O=C1CCC(=O)N1c1cc(Cl)c(Cl)c(Cl)c1
6,2.12,O=C1CCC(=O)N1c1cc(Br)cc(Br)c1
7,4.74,Cc1cccc(Nc2ccccc2C(=O)O)c1
8,1.26,CC(=O)Oc1cccc(O)c1
9,1.52,CCCc1cccc(N2C(=O)CCC2=O)c1
10,1.3,O=C1CCC(=O)N1c1ccc(C(F)(F)F)cc1
11,2.25,O=C1CCC(=O)N1c1cc(C(F)(F)F)cc(C(F)(F)F)c1
12,1.55,N#Cc1ccc(C(=O)O)cc1
13,1.88,O=C1CCC(=O)N1c1cc(Cl)cc(Cl)c1
14,2.05,O=C(O)c1cccc(F)c1
15,1.35,O=C1CC(c2cccc(C(F)(F)F)c2)C(=O)N1 (stereo not drawn)
16,1.16,Cc1cc(C)cc(N2C(=O)CCC2=O)c1
17,2.83,O=C(O)c1cccc(Br)c1
18,2.61,Oc1cccc(C(F)(F)F)c1
